Results as given in patent US20230416329A1, “A PEPTIDE WITH DISULFIDE BONDS AND INHIBITORY ACTIVITY AGAINST SERINE PROTEASES, DERIVED HYBRID PEPTIDES THEREOF, AND USES THEREOF” (INSTITUTE OF MATERIA MEDICA , CHINESE ACADEMY OF MEDICAL …, priority 2020, published 2023).

Key:
chymotrypsin = chymotrypsin (Bos taurus, UniProt P00766); assay: in vitro; settings: isolated enzyme chymotrypsin, pH 7.8, Remaining peak area (%)/chymotrypsin
Outline: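 RP-HPLC peak area tracked intact peptide after 37 °C digestion with chymotrypsin (0.05 μg/μL solution, 5 min preincubation). Samples were withdrawn at 1.5-60.0 min and stopped with 10% TFA.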

DPP-IV = DPP-IV (Homo sapiens, UniProt P27487); assay: Tolerance of GLP-1 and its analogues to DPP-IV (RP-HPLC remaining peak area); format: in vitro ADME; settings: peptide 25 μM, DPP-IV 0.5 ng/μL, 37° C.; for Remaining peak area (%)/DPP-IV: 0.0 h; for remaining at 0.5 h, 25 μM / remaining at 2 h, 25 μM / remaining at 4 h, 25 μM / remaining at 8 h, 25 μM / remaining at 12 h, 25 μM: isolated DPP-IV enzyme in buffer, pH 8
Procedure: (§1) Mix by centrifugation at 8000 rpm for 30 seconds.
(2) Arrange a certain volume of 0.005 μg/μL DPP-IV solution in another sterile EP.

trypsin = target: T1, trypsin (Bos taurus, UniProt P00760); assay: in vitro; settings: isolated enzyme trypsin, pH 7.8
T1 sequence (P00760 24-246): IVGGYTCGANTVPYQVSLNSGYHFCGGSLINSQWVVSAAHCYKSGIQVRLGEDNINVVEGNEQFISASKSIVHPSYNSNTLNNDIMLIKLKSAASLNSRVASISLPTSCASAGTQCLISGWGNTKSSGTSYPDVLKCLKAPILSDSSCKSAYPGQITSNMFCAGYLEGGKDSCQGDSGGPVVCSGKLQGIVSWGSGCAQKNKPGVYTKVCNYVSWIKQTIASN
Procedure: FIG. 17. […] At different time point, 25 μL aliquots was taken out, and 10% (v/v) TFA was added to terminate the reaction.
as §1
(§2) Arrange a certain volume of 0.05 μg/μL trypsin solution in another sterile EP. Incubate the EP tubes containing peptides and enzymes at 37° C. for 5 min, and separately add 6 μL of trypsin solution to each EP tube containing peptides and mix well. Start timing and extract 25 μL of reaction solution at 1.5, 3.0, 4.5, 6.0 and 9.0 min later, respectively. Add 3.75 μL of 10% TFA to terminate the reaction and mix well by centrifugation at 8000 rpm for 30 seconds.
as §2, with “and” for “and separately”, “9” for “6”, “6.0, 9.0, 15.0, 30.0,” for “6.0”, “60.0” for “9.0”
Referring to the experimental method in Example 5, in vitro stability of salmon Calcitonin analogs with oral administration activity to the enzymatic hydrolysis by trypsin, chymotrypsin and elastase were performed.
Referring to the experimental method in Example 5, in vitro stability of IL-17A inhibitory peptides towards the enzymatic hydrolysis by trypsin, chymotrypsin and elastase were performed.

NEP24.11 = NEP24.11 (Homo sapiens, UniProt P08473); assay: Tolerance of GLP-1 and its analogues to NEP24.11 (RP-HPLC remaining peak area); format: in vitro ADME; settings: for Remaining peak area (%)/NEP24.11: 0.0 h; for Remaining peak area (%)/NEP24.11 / remaining at 0.5 h, 30 μM / remaining at 2 h, 30 μM / remaining at 4 h, 30 μM / remaining at 8 h, 30 μM: peptide 30 μM, NEP24.11 1.0 ng/μL, 37° C.; for remaining at 0.5 h, 30 μM / remaining at 2 h, 30 μM / remaining at 4 h, 30 μM / remaining at 8 h, 30 μM: isolated NEP24.11 enzyme in buffer; for remaining at 0.5 h, 30 μM: pH 7.4, 0.5 h; for remaining at 2 h, 30 μM: pH 7.4, 2.0 h; for remaining at 4 h, 30 μM: pH 7.4, 4.0 h; for remaining at 8 h, 30 μM: pH 7.4, 8.0 h, read-out: Remaining peak area (%)/NEP24.11
Procedure: as §1
Arrange a certain volume of 0.04 μg/μL NEP24.11 enzyme solution in another sterile EP.

Sequence of NEP24.11 (P08473 whole entry): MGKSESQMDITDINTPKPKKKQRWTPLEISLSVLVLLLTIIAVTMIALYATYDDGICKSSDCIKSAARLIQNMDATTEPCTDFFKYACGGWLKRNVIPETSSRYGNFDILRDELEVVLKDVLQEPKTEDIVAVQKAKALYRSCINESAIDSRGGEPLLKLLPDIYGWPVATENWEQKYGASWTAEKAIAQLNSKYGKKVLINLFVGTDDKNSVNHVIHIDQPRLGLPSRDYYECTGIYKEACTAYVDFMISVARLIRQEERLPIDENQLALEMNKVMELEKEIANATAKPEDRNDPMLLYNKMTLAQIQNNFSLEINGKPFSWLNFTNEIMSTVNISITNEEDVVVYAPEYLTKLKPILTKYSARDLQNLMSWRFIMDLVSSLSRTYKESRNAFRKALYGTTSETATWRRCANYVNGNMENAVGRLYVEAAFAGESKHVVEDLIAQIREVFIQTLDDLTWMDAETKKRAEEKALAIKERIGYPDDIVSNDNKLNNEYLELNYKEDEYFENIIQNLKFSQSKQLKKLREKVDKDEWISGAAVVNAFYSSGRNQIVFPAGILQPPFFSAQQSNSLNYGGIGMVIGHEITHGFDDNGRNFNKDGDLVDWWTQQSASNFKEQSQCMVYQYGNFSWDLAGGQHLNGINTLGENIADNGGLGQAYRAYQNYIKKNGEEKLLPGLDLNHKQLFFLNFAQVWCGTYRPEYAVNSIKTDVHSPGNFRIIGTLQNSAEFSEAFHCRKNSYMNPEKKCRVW
Sequence of DPP-IV (P27487 whole entry, species assumed): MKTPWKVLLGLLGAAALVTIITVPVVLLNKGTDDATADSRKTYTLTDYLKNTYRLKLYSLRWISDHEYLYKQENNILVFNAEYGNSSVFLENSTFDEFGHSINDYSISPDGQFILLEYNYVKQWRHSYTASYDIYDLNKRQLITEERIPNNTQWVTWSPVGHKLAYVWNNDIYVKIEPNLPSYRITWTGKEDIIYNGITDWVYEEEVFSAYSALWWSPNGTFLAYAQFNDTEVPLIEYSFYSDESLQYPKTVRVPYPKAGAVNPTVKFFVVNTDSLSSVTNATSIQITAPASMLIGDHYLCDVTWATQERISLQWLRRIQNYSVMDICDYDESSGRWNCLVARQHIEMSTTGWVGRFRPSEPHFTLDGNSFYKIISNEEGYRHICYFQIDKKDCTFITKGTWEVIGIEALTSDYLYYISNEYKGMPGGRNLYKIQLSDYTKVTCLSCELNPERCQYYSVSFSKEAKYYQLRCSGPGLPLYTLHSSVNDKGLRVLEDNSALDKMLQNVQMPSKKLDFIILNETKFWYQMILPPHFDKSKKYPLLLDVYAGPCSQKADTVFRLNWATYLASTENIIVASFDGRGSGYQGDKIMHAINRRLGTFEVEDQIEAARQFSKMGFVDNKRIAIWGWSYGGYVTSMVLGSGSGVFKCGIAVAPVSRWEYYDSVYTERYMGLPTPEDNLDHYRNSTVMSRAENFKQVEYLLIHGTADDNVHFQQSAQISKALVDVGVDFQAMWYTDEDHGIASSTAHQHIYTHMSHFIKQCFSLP

remaining at 0.025 h, 60 μM (chymotrypsin) [%]	remaining at 0.05 h, 60 μM (chymotrypsin) [%]	remaining at 0.075 h, 60 μM (chymotrypsin) [%]	remaining at 0.1 h, 60 μM (chymotrypsin) [%]	remaining at 0.15 h, 60 μM (chymotrypsin) [%]	remaining at 0.025 h, 60 μM (trypsin) [%]	remaining at 0.05 h, 60 μM (trypsin) [%]	remaining at 0.075 h, 60 μM (trypsin) [%]	remaining at 0.1 h, 60 μM (trypsin) [%]	remaining at 0.15 h, 60 μM (trypsin) [%]	Compound	Remaining peak area (%)/DPP-IV (DPP-IV) [%]	remaining at 0.5 h, 25 μM (DPP-IV) [%]	remaining at 2 h, 25 μM (DPP-IV) [%]	remaining at 4 h, 25 μM (DPP-IV) [%]	remaining at 8 h, 25 μM (DPP-IV) [%]	remaining at 12 h, 25 μM (DPP-IV) [%]	Remaining peak area (%)/NEP24.11 (NEP24.11) [%]	remaining at 0.5 h, 30 μM (NEP24.11) [%]	remaining at 2 h, 30 μM (NEP24.11) [%]	remaining at 4 h, 30 μM (NEP24.11) [%]	further results
72.1 ± 11.5	45.8 ± 6.5	38 ± 2.3	29.3 ± 4.7	11.3 ± 3.2	21 ± 2.9	17.2 ± 0.8	9.8 ± 2.9	4.5 ± 0.8	3.4 ± 1.7	CC[C@H](C)[C@H](NC(=O)[C@H](Cc1ccccc1)NC(=O)[C@H](CCC(=O)O)NC(=O)[C@H](CCCCN)NC(=O)[C@H](C)NC(=O)[C@H](C)NC(=O)[C@H](CCC(N)=O)NC(=O)CNC(=O)[C@H](CCC(=O)O)NC(=O)[C@H](CC(C)C)NC(=O)[C@H](Cc1ccc(O)cc1)NC(=O)[C@H](CO)NC(=O)[C@H](CO)NC(=O)[C@@H](NC(=O)[C@H](CC(=O)O)NC(=O)[C@H](CO)NC(=O)[C@@H](NC(=O)[C@H](Cc1ccccc1)NC(=O)[C@@H](NC(=O)CNC(=O)[C@H](CCC(=O)O)NC(=O)[C@H](C)NC(=O)[C@H](Cc1c[nH]cn1)NC(=O)CNC(=O)CNC(=O)CNC(=O)CNC(=O)CNC(=O)CNC(=O)CN)[C@@H](C)O)[C@@H](C)O)C(C)C)C(=O)N[C@@H](C)C(=O)N[C@@H](Cc1c[nH]c2ccccc12)C(=O)N[C@@H](CC(C)C)C(=O)N[C@H](C(=O)N[C@@H](CCCCN)C(=O)NCC(=O)N[C@@H](CCCNC(=N)N)C(=O)NCC(=O)O)C(C)C [G7-GLP-1]	100.0 ± 0.0	42.1 ± 15.5	51.1 ± 6.5	55.3 ± 14.4	42.3 ± 9.6	34.5 ± 2.1	100.0 ± 0.0	63 ± 5.1	27.2 ± 7.2	11.5 ± 0.3	remaining prototype peptide after DPP-IV treatment (DPP-IV; 12 hours): about 34.5%; degradation by NEP24.11 (in words) (NEP24.11; after 8 hours): almost completely degraded; remaining at 8 h, 30 μM (NEP24.11): 0%
79.5 ± 4.9	71.8 ± 2.7	64.9 ± 1	59.8 ± 2.9	51.9 ± 1	89.2 ± 3.7	83.2 ± 2.3	79.1 ± 1	84.4 ± 3.4	83.9 ± 0.5	CC[C@H](C)[C@H](NC(=O)[C@H](Cc1ccccc1)NC(=O)[C@H](CCC(=O)O)NC(=O)[C@H](CCCCN)NC(=O)[C@H](C)NC(=O)[C@H](C)NC(=O)[C@H](CCC(N)=O)NC(=O)CNC(=O)[C@H](CCC(=O)O)NC(=O)[C@H](CC(C)C)NC(=O)[C@H](Cc1ccc(O)cc1)NC(=O)[C@H](CO)NC(=O)[C@H](CO)NC(=O)[C@@H](NC(=O)[C@H](CC(=O)O)NC(=O)[C@H](CO)NC(=O)[C@@H](NC(=O)[C@H](Cc1ccccc1)NC(=O)[C@@H](NC(=O)CNC(=O)[C@H](CCC(=O)O)NC(=O)[C@H](C)NC(=O)[C@H](Cc1c[nH]cn1)NC(=O)CNC(=O)CNC(=O)[C@H](CCCNC(=N)N)NC(=O)[C@H](CO)NC(=O)[C@H](Cc1ccccc1)NC(=O)[C@H](CCCNC(=N)N)NC(=O)[C@H](CCC(N)=O)NC(=O)CN)[C@@H](C)O)[C@@H](C)O)C(C)C)C(=O)N[C@@H](C)C(=O)N[C@@H](Cc1c[nH]c2ccccc12)C(=O)N[C@@H](CC(C)C)C(=O)N[C@H](C(=O)N[C@@H](CCCCN)C(=O)NCC(=O)N[C@@H](CCCNC(=N)N)C(=O)NCC(=O)NCC(=O)N[C@@H](CCCCN)C(=O)NCC(=O)N[C@@H](CCCNC(=N)N)C(=O)N[C@H]1CSSC[C@@H](C(=O)N[C@@H](Cc2ccccc2)C(=O)N2CCC[C@H]2C(=O)O)NC(=O)[C@H]([C@@H](C)CC)NC(=O)[C@@H]2CCCN2C(=O)[C@@H]2CCCN2C(=O)[C@H]([C@@H](C)CC)NC(=O)[C@H](CO)NC(=O)[C@H](CCCCN)NC(=O)[C@H]([C@@H](C)O)NC1=O)C(C)C [N-GLP-1-BT1]	100.0 ± 0.0	84 ± 0.1	80.1 ± 0.9	76 ± 1.6	74.1 ± 0.5	72.1 ± 2	100.0 ± 0.0	82.3 ± 8.3	80.3 ± 2	74.4 ± 9.1	remaining at 0.25 h, 60 μM (trypsin): 84.5 ± 4.9%; remaining at 0.5 h, 60 μM (trypsin): 83.7 ± 3%; remaining at 1 h, 60 μM (trypsin): 83.5 ± 1.4%; remaining at 8 h, 30 μM (NEP24.11): 68.7 ± 8.4%
75.5 ± 5.3	56.3 ± 2.1	47 ± 1.6	38.1 ± 2.2	24.2 ± 3	105 ± 3	104 ± 2.8	102 ± 3	104 ± 6.4	103 ± 3.5	CC[C@H](C)[C@H](NC(=O)[C@H](Cc1ccccc1)NC(=O)[C@H](CCC(=O)O)NC(=O)[C@H](CCCCN)NC(=O)[C@H](C)NC(=O)[C@H](C)NC(=O)[C@H](CCC(N)=O)NC(=O)CNC(=O)[C@H](CCC(=O)O)NC(=O)[C@H](CC(C)C)NC(=O)[C@H](Cc1ccc(O)cc1)NC(=O)[C@H](CO)NC(=O)[C@H](CO)NC(=O)[C@@H](NC(=O)[C@H](CC(=O)O)NC(=O)[C@H](CO)NC(=O)[C@@H](NC(=O)[C@H](Cc1ccccc1)NC(=O)[C@@H](NC(=O)CNC(=O)[C@H](CCC(=O)O)NC(=O)[C@H](C)NC(=O)[C@H](Cc1c[nH]cn1)NC(=O)CNC(=O)CNC(=O)[C@H](CCCNC(=N)N)NC(=O)[C@H](CO)NC(=O)[C@H](Cc1ccccc1)NC(=O)[C@H](CCCNC(=N)N)NC(=O)[C@H](CCC(N)=O)NC(=O)CN)[C@@H](C)O)[C@@H](C)O)C(C)C)C(=O)N[C@@H](C)C(=O)N[C@@H](Cc1c[nH]c2ccccc12)C(=O)N[C@@H](CC(C)C)C(=O)N[C@H](C(=O)N[C@@H](CCCCN)C(=O)NCC(=O)N[C@@H](CCCNC(=N)N)C(=O)NCC(=O)NCC(=O)N[C@@H](CCCCN)C(=O)NCC(=O)N[C@H]1CSSC[C@@H](C(=O)N[C@@H](Cc2ccccc2)C(=O)O)NC(=O)[C@H]([C@@H](C)CC)NC(=O)[C@@H]2CCCN2C(=O)[C@@H]2CCCN2C(=O)[C@H]([C@@H](C)CC)NC(=O)[C@H](CO)NC(=O)[C@H](CCCCN)NC(=O)[C@H]([C@@H](C)O)NC(=O)[C@H](C)NC(=O)[C@H](CCCNC(=N)N)NC(=O)CNC1=O)C(C)C [N-GLP-1-BT9]	100.0 ± 0.0	90 ± 3	89.5 ± 1.8	89.6 ± 3.6	89.2 ± 1	89.3 ± 7.5	100.0 ± 0.0	85.9 ± 2.8	74.9 ± 1.4	66.8 ± 2.1	remaining at 0.25 h, 60 μM (trypsin): 102 ± 4.9%; remaining at 0.5 h, 60 μM (trypsin): 96.4 ± 9.9%; remaining at 1 h, 60 μM (trypsin): 86.3 ± 6.4%; remaining at 8 h, 30 μM (NEP24.11): 52.7 ± 3.9%
